The text below walks through data of PubChem BioAssay (NCI).

Holding throughout (assay): DTP human tumour cell line panel, 48 h
Assay [1] relates to HT29 colon.
In assay [2] the test system is NCI-H226 lung.
Assay [3] relates to M14 melanoma.
The subject of assay [4] is MDA-MB-435.
Assay [5] concerns UACC-62 melanoma.
Assay [6] concerns UACC-257 melanoma.
The test system of assay [7] is SW-620 colon.
The subject of assay [8] is TK-10 renal.
Assay [9] relates to NCI/ADR-RES ovarian.
In assay [10] the test system is SK-MEL-2 melanoma.
The subject of assay [11] is SK-MEL-5 melanoma.

Broadly, the TGI is the concentration at which net growth stops. Read a high TGI as lower sensitivity of the cells. One may read the GI50 as the concentration giving 50% growth inhibition.

“And” between values parts separate entries of the source, which are not always exact repeats. Equal entries are not always repeated.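 48-hour exposure; five concentrations; linearly interpolated endpoints. GI50 = concentration required for 50% inhibition of growth. Definition used: TGI = concentration required for complete inhibition of growth.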 Starred links: 1 amine or outer side, 2 acyl side, 3 side chain; linkers in the order of their positions; H or OH if unused. Positions of bridges follow the written chain, without caps; N, C: chain ends. Non-standard residues stand in square brackets, D forms with d. Residues, ends and D or L forms follow the SMILES beside them. Chains are numbered I, II in the order given. Actinocin(9to1) = Cc1c2oc3c(C)ccc(C(=O)[*:1])c3nc-2c(C(=O)[*:2])c(N)c1=O; NMeY = CN[CH](Cc1ccc(O)cc1)C(=O)O; Sar = CNCC(=O)O Bounds are passed on as bounds.

Consider `O=c1[nH]nnc2c1sc1ncccc12`, for which the TGI in [1], in [2], in assay [3], in assay [4], in assay [5] and in [6] was more than 100 µM throughout. The TGI in assay [7], in assay [8], in [9], in assay [10] and in assay [11] was more than 100 µM each time.

With `C=CCCON(C(=O)OC(C)(C)C)C(C)(C)C`, the TGI in assay [1], in [2], in [3], in assay [4], in [5] and in [6] was more than 100 µM throughout. The TGI in [7], in assay [8], in assay [9], in [10] and in [11] was more than 100 µM throughout.

For `Cc1n(Cc2ccccc2)c2c([n+]1C)C(=O)c1ccccc1C2=O`, the TGI in [1] stood at 0.353 µM; in [2], 0.514 µM; in [3] it was 0.282 µM; in [4] it was 0.33 µM; in assay [5] it was 0.451 µM; in [6] it was 0.14 µM. The concentration for total growth inhibition (TGI) in assay [7] was 0.763 µM; in assay [8], 1.67 µM; in assay [9], more than 100 µM; in assay [10], 0.388 µM; in assay [11] it was 0.0509 µM.

Turning to `CC1(C)OC(C(=O)Nc2cc3c4ccccc4ccc3c3ccccc23)C(C(=O)N2CCCCC2)O1` (stereo not drawn), the total growth inhibition concentration (TGI) in [1], in assay [2], in assay [3], in [4], in [5] and in assay [6] was more than 100 µM each time. Further, the TGI in assay [7], in [8], in [9], in [10] and in assay [11] was more than 100 µM in each case.

As to `COc1cccc(C2c3cc4c(cc3OC(N3CCCCC3)C2C)OCO4)c1O` (stereo not drawn), the total growth inhibition concentration (TGI) in assay [1] is 13.3 µM; in assay [2], 46.7 µM; in [3] it was 22.6 µM; in assay [4] it was 6.82 µM; in assay [5] it was 28.2 µM; in [6] it was more than 56.6 µM. Also, the concentration for total growth inhibition (TGI) in assay [7] is more than 87.8 µM; in assay [8], 62.8 µM; in assay [9], more than 100 µM; in assay [10], 42.5 µM; in assay [11] it was 16.3 µM.

On to `COC(=O)c1ccc(/C=C/c2cc(O)ccc2O)cc1`, for which the TGI in assay [1] was more than 100 µM; in [2], more than 27 µM; in assay [3], 43 µM; in assay [4] it was 13.5 µM; in assay [5] it was 17.4 µM; in assay [6], 22.5 µM. Moreover, the TGI in [7] is 18.6 µM; in assay [8], 45.3 µM; in [9], 7.72 µM; in [10] it was more than 31.6 µM; in assay [11], more than 25.5 µM.

Regarding `CN=C(n1ccnc1)n1ccnc1`, the TGI in assay [1], in [2], in assay [3], in assay [4], in [5] and in assay [6] was more than 100 µM throughout. In addition, the TGI in [7], in [8], in [9], in assay [10] and in assay [11] was more than 100 µM throughout.

Take `Cc1ccc(-n2cnc(C(=N)C#N)c2N)cc1`: the TGI in assay [1], in assay [2], in assay [3], in assay [4], in [5] and in assay [6] was more than 100 µM each time. Moreover, the TGI in assay [7], in assay [8], in assay [9], in assay [10] and in assay [11] was more than 100 µM throughout.

Regarding `COC(=O)C1=C(C(=O)OC)N(c2ccc(OC)cc2[N+](=O)[O-])C(c2ccc(C)cc2)=CC1c1ccc(OC)cc1OC` (stereo not drawn), the TGI in assay [1] was more than 100 µM; in [2], 49.9 µM; in assay [3] it was more than 100 µM; in assay [4], more than 100 µM; in assay [5] it was more than 100 µM; in assay [6] it was more than 100 µM. Besides, the concentration for total growth inhibition (TGI) in assay [7] is 19.2 µM; in assay [8], more than 100 µM; in assay [9], more than 77.8 µM; in assay [10] it was more than 80.4 µM; in [11], more than 100 µM.

Take `O=[N+]([O-])c1ccc(CN(CCCl)OCCCl)cc1`: the TGI in assay [1], in [2], in [3], in assay [4], in assay [5] and in assay [6] was more than 100 µM in each case. The TGI in [7], in assay [8], in assay [9], in [10] and in assay [11] was more than 100 µM throughout.

As for `CO[C@@]12C[C@@H](C)C3=CCC(C)=C3CC1=C(C)C(=O)O2`, the total growth inhibition concentration (TGI) in assay [1], in [2], in [3], in [4], in assay [5] and in assay [6] was more than 100 µM each time. The TGI in assay [7], in assay [8], in assay [9], in assay [10] and in assay [11] was more than 100 µM each time.

Take `CC(C)(C)OC(=O)NC1CCCCC1NC(=O)C(=O)NC1CCCCC1NC(=O)OC(C)(C)C` (stereo not drawn): the concentration for total growth inhibition (TGI) was more than 100 µM in [1]; more than 100 µM in [2]; more than 100 µM in assay [3]; more than 100 µM in assay [4]; 92.9 µM in [5]; more than 100 µM in assay [6]. Also, the TGI in assay [7], in [8], in [9], in assay [10] and in assay [11] was more than 100 µM in each case.

As for `CN(C)c1ccc(/C=c2/c3ccccc3n3c2c2c([n+]3C)CCCC2)cc1`, the TGI came to 1.61 µM in assay [1]; 2.43 µM in assay [2]; 1.5 µM in [3]; 0.717 µM in assay [4]; 1.95 µM in [5]; 2.88 µM in assay [6]. Besides, the TGI came to 10.5 µM in assay [7]; 1.55 µM in [8]; 43.9 µM in assay [9]; 0.59 µM in assay [10]; 0.217 µM in assay [11].

In the case of `COC[C@@H](N=CC(C)(C)C)C(C)C`, the TGI in assay [1], in [2], in assay [3], in assay [4], in [5] and in assay [6] was more than 100 µM each time. The TGI in [7], in [8], in assay [9], in assay [10] and in assay [11] was more than 100 µM throughout.

Take `O=C1C=CC(=O)c2c1ccc1c3ccccc3n(CCCCCn3c4ccccc4c4ccc5c(c43)C(=O)C=CC5=O)c21`: the total growth inhibition concentration (TGI) in assay [1] was 85.5 µM; in [2], more than 100 µM; in assay [3], 39.3 µM; in assay [4], 46.3 µM; in [5], 71.8 µM; in assay [6] it was 39.5 µM. Further, the TGI in assay [7] was 26.8 µM; in assay [8], 26.8 µM; in [9], more than 64.9 µM; in [10] it was 44.8 µM; in assay [11], more than 86.1 µM.

On to `CC1(C)/C(=N\NC(N)=O)C2CCC1C2` (stereo not drawn), for which the TGI in assay [1], in assay [2], in assay [3], in [4], in [5] and in assay [6] was more than 100 µM in each case. The TGI in [7], in assay [8], in assay [9], in assay [10] and in [11] was more than 100 µM in each case.

Consider `CC1=C(C)CC2C(=O)N(c3cc(C(C)(C)C)ccc3C(C)(C)C)C(=O)C2C1` (stereo not drawn), for which the total growth inhibition concentration (TGI) is more than 100 µM in assay [1]; more than 100 µM in assay [2]; more than 100 µM in assay [3]; more than 100 µM in [4]; 31.8 µM in assay [5]; more than 100 µM in assay [6]. Also, the TGI in [7], in [8], in assay [9], in [10] and in [11] was more than 100 µM each time.

Turning to `Cc1ccnc2[nH]c(-c3ccc4ccccc4c3)cc(=O)c12`, the TGI in assay [1] came out at 12.4 µM; in [2], 11.4 µM; in [3], 23.2 µM; in assay [4], 0.453 µM; in [5], 9 µM; in assay [6], 32.8 µM. Moreover, the TGI was 13.9 µM in assay [7]; 13.4 µM in assay [8]; 7.14 µM in assay [9]; 28.2 µM in [10]; 12.7 µM in assay [11]. For the same compound, the GI50 in [4] was 0.204 µM; in [11], 0.437 µM.

On to `CN1C(=O)c2ccccc2OC12C=Cc1c(ccc3ccccc13)O2` (stereo not drawn), for which the TGI in [1] is 10.3 µM; in [2], 48.6 µM; in assay [3] it was 17.1 µM; in [4] it was more than 24.5 µM; in [5] it was more than 47.1 µM; in [6], 36.3 µM. The TGI in [7] is more than 72.6 µM; in assay [8], more than 61 µM; in [9], 6.79 µM; in [10], 22 µM; in assay [11], 23 µM.

As for `Cc1ccc(/C=N/Nc2cc(C)c3cccc(C)c3n2)s1`, the TGI in [1] amounted to 13 µM; in [2], 37.5 µM; in assay [3], 18.2 µM; in assay [4], 37.2 µM; in assay [5], 43.6 µM; in [6], 58.9 µM. The TGI in assay [7] was more than 100 µM; in assay [8], more than 100 µM; in [9], 22.5 µM; in assay [10] it was 33.2 µM; in assay [11], 23.9 µM.

In the case of `[N-]=[N+]=Nc1c([N+](=O)[O-])c(=O)n(-c2ccccc2)c2ccccc12`, the TGI was more than 100 µM in [1]; 96.9 µM in assay [2]; 73.1 µM in assay [3]; 47 µM in assay [4]; 59 µM in assay [5]; more than 100 µM in assay [6]. The total growth inhibition concentration (TGI) in assay [7] stood at 58.4 µM; in [8], 44.2 µM; in assay [9], 79.7 µM; in [10], 52.5 µM; in [11] it was 59.5 µM.

For `Cc1c2oc3c(C)ccc(C(=O)NC4C(=O)NC(C(C)C)C(=O)N5CCCC5C(=O)N(C)CC(=O)N(C)C(Cc5ccc(O)cc5)C(=O)OC4C)c3nc-2c(C(=O)NC2C(=O)NC(C(C)C)C(=O)N3CCCC3C(=O)N(C)CC(=O)N(C)C(Cc3ccc(O)cc3)C(=O)OC2C)c(N)c1=O` (stereo not drawn) (I: TVP[Sar][NMeY] / II: TVP[Sar][NMeY]; ester I:1-I:C, II:1-II:C; linker I:N-II:N via Actinocin(9to1); configuration not given here), the GI50 in assay [1] is 0.00859 µM and 0.00267 µM; in assay [3] it was 0.175 µM and 0.0513 µM; in assay [4] it was 0.0459 µM and 0.0099 µM; in [5], 0.0235 µM and 0.0057 µM; in assay [6], 0.0936 µM and 0.0111 µM; in assay [8] it was 0.117 µM. The GI50 is 0.494 µM in assay [9]; 0.0227 µM and 0.00612 µM in assay [11]. Moreover, the TGI was 0.377 µM and > 0.412 µM in [1]; more than 0.539 µM in assay [2]; > 0.793 µM and 0.229 µM in assay [3]; 0.259 µM and 0.147 µM in [4]; 0.157 µM and 0.0213 µM in [5]; 0.54 µM and 0.446 µM in assay [6]. For the same compound, the TGI in assay [7] was more than 1 µM; in assay [8], more than 1 µM; in assay [9], more than 1 µM; in assay [10], 0.111 µM and 0.0245 µM; in assay [11], 0.221 µM and 0.0252 µM.

Consider `COc1cccc(CCNC(=O)Cc2ccccc2CCO)c1`, for which the TGI in [1], in [2], in assay [3], in assay [4], in assay [5] and in assay [6] was more than 100 µM throughout. Also, the concentration for total growth inhibition (TGI) in [7], in assay [8], in assay [9], in assay [10] and in [11] was more than 100 µM in each case.
